Consider 15 compounds from ChEMBL document CHEMBL1123604 (J Med Chem, 1987).

The test system of assay [1] is Canis familiaris. As to the kind of experiment: Change in heart rate(HR) in anesthetized dog. It counts as functional, Canis lupus familiaris.
In assay [2] the test system is Canis familiaris. As to the kind of experiment: Myocardial contractility in anesthetized dog by intravenous dose. It is filed as functional. The following applies: Canis lupus familiaris, Myocardium.
The nature of assay [3]: Inhibition of Guinea Pig cAMP specific phosphodiesterase (PDE III).
In assay [4] the test system is Canis familiaris. As to the kind of experiment: Change in mean arterial blood pressure(MAP) in anesthetized dog. It counts as functional, Canis lupus familiaris, Artery.
Assay [5] deals with Canis familiaris. As to the kind of experiment: Increased myocardial contractility (dP/dt max) in anesthetized dog at 2 mg/kg. It counts as functional, Canis lupus familiaris, Myocardium.
A short description of assay [6]: Inhibition of Guinea Pig cAMP specific phosphodiesterase (PDE III). The source holds these as a separate data set.
The test system of assay [7] is Canis familiaris. As to the kind of experiment: Percent change of ventricular pressure in anesthetized dog at 0.01 mg/kg. It is filed as functional, Canis lupus familiaris, Cardiac ventricle.
Assay [8] relates to Canis familiaris. As to the kind of experiment: Increased contractility (dP/dt max) in Conscious dog at peroral dose of 0.31 mg/kg. It is filed as functional, Canis lupus familiaris. Particulars: route oral.
For assay [9], the system named is Canis familiaris. In words: Percent change of heart rate in anesthetized dog at 0.031 mg/kg. It is filed as functional, Canis lupus familiaris.
The test system of assay [10] is Canis familiaris. In words: Percent change in blood pressure in anesthetized dog at 0.01 mg/kg. It counts as functional, Canis lupus familiaris.
The subject of assay [11] is Canis familiaris. In words: Percent change of heart rate in anesthetized dog at 0.31 mg/kg. It counts as functional, Canis lupus familiaris.
For assay [12], the system named is Canis familiaris. As to the kind of experiment: Percent change in blood pressure in anesthetized dog at 0.031 mg/kg. It is filed as functional, Canis lupus familiaris.
The test system of assay [13] is Canis familiaris. In words: Percent change in blood pressure in anesthetized dog at 1 mg/kg. It counts as functional, Canis lupus familiaris.
In assay [14] the test system is Canis familiaris. In words: Percent change in blood pressure in anesthetized dog at 0.31 mg/kg. It counts as functional, Canis lupus familiaris.
For assay [15], the system named is Canis familiaris. As to the kind of experiment: Percent change of ventricular pressure in anesthetized dog at 1 mg/kg. It counts as functional, Canis lupus familiaris, Cardiac ventricle.
Assay [16] has as its system Canis familiaris. As to the kind of experiment: Percent change of ventricular pressure in anesthetized dog at 0.31 mg/kg. It counts as functional, Canis lupus familiaris, Cardiac ventricle.
Assay [17] concerns Canis familiaris. In words: Increased myocardial contractility (dP/dt max) in anesthetized dog at 6 mg/kg. It counts as functional, Canis lupus familiaris, Myocardium.
In assay [18] the test system is Canis familiaris. As to the kind of experiment: Percent change of heart rate in anesthetized dog at 1 mg/kg. It is filed as functional, Canis lupus familiaris.
The test system of assay [19] is Canis familiaris. As to the kind of experiment: Percent change of heart rate in anesthetized dog at 0.1 mg/kg. It counts as functional, Canis lupus familiaris.
Assay [20] relates to Canis familiaris. In words: Percent change in blood pressure in anesthetized dog at 0.1 mg/kg. It counts as functional, Canis lupus familiaris.
The subject of assay [21] is Canis familiaris. As to the kind of experiment: Percent change of ventricular pressure in anesthetized dog at 0.1 mg/kg. It counts as functional, Canis lupus familiaris, Cardiac ventricle.
The subject of assay [22] is Canis familiaris. As to the kind of experiment: Percent change of ventricular pressure in anesthetized dog at 0.031 mg/kg. It counts as functional, Canis lupus familiaris, Cardiac ventricle.
Assay [23] has as its system Canis familiaris. As to the kind of experiment: Percent change of heart rate in anesthetized dog at 0.01 mg/kg. It counts as functional, Canis lupus familiaris.
The test system of assay [24] is Canis familiaris. As to the kind of experiment: Increased myocardial contractility (dP/dt max) in conscious dog at 1 mg/kg peroral dose. It counts as functional, Canis lupus familiaris, Myocardium. Particulars: route oral.
Assay [25] concerns Canis familiaris. In words: Percent change in heart rate in anesthetized dog at 0.031 mg/kg. It is filed as functional, Canis lupus familiaris.
Assay [26] concerns Canis familiaris. As to the kind of experiment: Increased myocardial contractility (dP/dt max) in anesthetized dog at 8 mg/kg. It is filed as functional, Canis lupus familiaris, Myocardium.
In assay [27] the test system is Canis familiaris. In words: Percent change in ventricular pressure in anesthetized dog at 0.1 mg/kg. It counts as functional, Canis lupus familiaris, Cardiac ventricle.
Assay [28] concerns Canis familiaris. In words: Increased myocardial contractility (dP/dt max) in conscious dog at 0.31 mg/kg peroral dose, range 10-20. It is filed as functional, Canis lupus familiaris, Myocardium. Particulars: route oral.
For assay [29], the system named is Canis familiaris. As to the kind of experiment: Increased myocardial contractility (dP/dt max) in anesthetized dog.
Assay [30] concerns Canis familiaris. As to the kind of experiment: Percent change in ventricular pressure in anesthetized dog at 0.031 mg/kg. It is filed as functional, Canis lupus familiaris, Cardiac ventricle.

A value given as a limit tells only on which side of the number the result lay.

Usually ED50 stands for the dose that gives a 50% effect, or the effect in half of the subjects. A low value points to an effect at a small dose. One may read the IC50 as the point on the concentration scale where inhibition reaches its midpoint. A high value points to a need for much substance. Turning to `CCC1C(=O)NN=C1c1ccc(-n2ccnc2)cc1` (stereo not drawn), the Change in assay [1] and in [4] was 0% in each case. In addition, the ED50 in assay [2] is greater than 1 mg/kg. In assay [3], this compound had an IC50 of 270 µM.

The compound `CC1CC(c2ccc(-n3ccnc3)cc2)=NNC1=O` (stereo not drawn) displayed a Dose in [5] of 0.5 mg/kg.

For `CCC1(C)C(=O)NN=C1c1ccc(-n2ccnc2)cc1` (stereo not drawn), the values for the Change in assay [1] and in assay [4] were 17% and 6%, respectively. This compound also returned an ED50 in [2] of 0.37 mg/kg. Besides, the 50% inhibitory concentration (IC50) in [3] came to 52 µM.

As for `CC1(C)C(=O)NN=C1c1ccc(-n2cnc3c2CCCC3)cc1`, the Change is 10% in assay [1] and -10% in [4]. This compound also returned an ED50 in [2] of 0.2 mg/kg. Moreover, the IC50 in assay [3] came to 3.2 µM.

As to `CC1(C)CC(=O)NN=C1c1ccc(-n2ccnc2)cc1`, the Dose in [5] was determined as 0.2 mg/kg.

For the compound `CSc1ccc(C2=NNC(=O)C2(C)C)cc1`, the Change in [1] is 5%; in [4], -1%. The same compound displayed a median effective dose (ED50) in assay [2] of 0.35 mg/kg.

On to `CC1(C)C(=O)NN=C1c1ccncc1`, for which the Change in assay [1] is on record as 11%; in assay [4] it was 1%. This compound displayed an ED50 in [2] of 0.3 mg/kg.

`CC1(C)CC(c2ccc(-n3ccnc3)cc2)=NNC1=O`: the Dose in assay [5] was 0.05 mg/kg.

Turning to `O=C1NN=C(c2ccc(-n3ccnc3)cc2)C12CCCC2`, the Change in assay [1] was 3.5%; in [4], -0.25%. The 50% effect level in assay [2] (ED50) was put at a dose of 1 mg/kg. In assay [3], this compound had an IC50 of 54 µM.

With `CC1C(=O)NN=C1c1ccc(-n2ccnc2)cc1` (stereo not drawn), the Change in assay [1] and in assay [4] was 0% in each case. The same compound showed an ED50 in [2] greater than 1 mg/kg. The IC50 in assay [6] was found to be 140 µM.

For the compound `O=C1CC(c2ccc(-n3ccnc3)cc2)=NN1`, the Change in assay [1] and in assay [4] was 0% each time. In addition, the ED50 in assay [2] was greater than 1 mg/kg. The 50% inhibitory concentration (IC50) in assay [3] amounted to 590 µM.

Take `CC1(C)C(=O)NN=C1c1ccc(-n2ccnc2)cc1`: the Change is 6% in assay [7]; 24% in assay [8]; 0.2% in assay [9]; -0.5% in [10]; 9% in [11]; -4% in [12]. The Change in assay [1] was 4.9%; in assay [13], -34%; in assay [14] it was -20%; in [15] it was 100%; in [16], 78%; in [18] it was 14%. The Change was 0.8% in assay [19]; -11% in assay [20]; 39% in [21]; -14% in assay [4]; 10% in [22]; 0% in [23]. Further, in assay [2], the ED50 amounted to 0.18 mg/kg. The compound also registered a Dose in assay [17] of 0.18 mg/kg. In addition, the IC50 in [3] was found to be 22 µM.

Consider `CCC1(CC)C(=O)NN=C1c1ccc(-n2ccnc2)cc1`, for which the Change in [1] and in [4] was 0% each time. Also, in assay [2], the ED50 was greater than 1 mg/kg. For the same compound, in assay [3], the half-maximal inhibitory concentration (IC50) came to 120 µM.

In assay [17], `CC1CC(O)=NN=C1c1ccc(-n2ccnc2)cc1` (stereo not drawn) [CI-930] returned a Dose of 0.013 mg/kg.

Regarding `O=C1CCC(c2ccc(-n3ccnc3)cc2)=NN1` [IMAZODAN], the Change in assay [7] is on record as 10.2%; in assay [10], -0.7%; in assay [11], 19.2%; in assay [12] it was -4.1%; in assay [25], 5.6%; in assay [13], -22.4%. Besides, the Change in assay [14] is given as -13.2%; in assay [15], 146.7%; in assay [27], 74.2%; in assay [16], 127.3%; in [18], 33.8%; in assay [19], 6.2%. The Change in assay [20] is -5.3%; in assay [30] it was 37.2%; in assay [23], 0%. Moreover, the Increase contractility turned out to be 40% in assay [24] and 10% in [28]. The Dose in [26] and in [29] was 0.045 mg/kg in each case.
